The record followed here is BindingDB's records for PubMed 1930610 (Eli Lilly, 1991).

Where a name gives a salt, the structure may show the parent alone.

Test [1] concerns the target 5-hydroxytryptamine receptor 2A (Rattus norvegicus, UniProt P14842).
For test [2], the target named is 5-hydroxytryptamine receptor 1B (Rattus norvegicus, UniProt P28564).
For test [3], the target named is Beta-arrestin-2 (Bos taurus, UniProt P32120).
The target of test [4] is T1, 5-hydroxytryptamine receptor 3A (Rattus norvegicus, UniProt P35563).
T1 sequence (P35563 whole entry): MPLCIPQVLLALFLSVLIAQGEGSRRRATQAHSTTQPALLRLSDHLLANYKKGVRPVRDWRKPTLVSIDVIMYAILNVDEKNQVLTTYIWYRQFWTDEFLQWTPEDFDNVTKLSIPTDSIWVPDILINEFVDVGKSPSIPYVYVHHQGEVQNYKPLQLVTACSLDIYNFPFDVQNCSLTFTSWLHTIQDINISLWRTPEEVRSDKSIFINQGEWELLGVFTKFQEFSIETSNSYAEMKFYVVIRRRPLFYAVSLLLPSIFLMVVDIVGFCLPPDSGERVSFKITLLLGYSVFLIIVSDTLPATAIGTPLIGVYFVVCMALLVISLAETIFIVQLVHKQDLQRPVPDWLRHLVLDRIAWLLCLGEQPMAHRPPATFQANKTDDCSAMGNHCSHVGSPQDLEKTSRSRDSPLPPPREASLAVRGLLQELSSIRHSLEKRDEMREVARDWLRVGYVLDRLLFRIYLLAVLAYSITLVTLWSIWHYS

The target of test [5] is 5-hydroxytryptamine 1D receptor (Bos taurus, UniProt Q8MI13).
Chain of 5-hydroxytryptamine 1D receptor (Q8MI13 whole entry): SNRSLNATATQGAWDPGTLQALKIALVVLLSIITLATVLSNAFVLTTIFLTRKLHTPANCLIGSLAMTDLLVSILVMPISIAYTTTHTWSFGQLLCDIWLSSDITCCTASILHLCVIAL
Test [6] addresses T2, 5-hydroxytryptamine receptor 1A (Rattus norvegicus, UniProt P19327).
T2 sequence (P19327 whole entry): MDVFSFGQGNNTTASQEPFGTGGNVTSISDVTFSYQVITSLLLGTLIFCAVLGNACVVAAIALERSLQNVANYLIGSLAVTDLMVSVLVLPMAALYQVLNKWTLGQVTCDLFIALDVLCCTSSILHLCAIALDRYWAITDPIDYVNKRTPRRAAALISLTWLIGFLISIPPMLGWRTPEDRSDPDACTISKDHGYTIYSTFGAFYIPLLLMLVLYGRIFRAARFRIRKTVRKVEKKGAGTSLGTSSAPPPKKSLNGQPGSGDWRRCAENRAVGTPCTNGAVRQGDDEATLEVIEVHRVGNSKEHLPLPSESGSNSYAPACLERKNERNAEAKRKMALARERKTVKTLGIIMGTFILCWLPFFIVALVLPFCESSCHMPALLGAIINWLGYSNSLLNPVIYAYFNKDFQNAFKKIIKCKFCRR

Chain of 5-hydroxytryptamine receptor 1B (P28564 whole entry): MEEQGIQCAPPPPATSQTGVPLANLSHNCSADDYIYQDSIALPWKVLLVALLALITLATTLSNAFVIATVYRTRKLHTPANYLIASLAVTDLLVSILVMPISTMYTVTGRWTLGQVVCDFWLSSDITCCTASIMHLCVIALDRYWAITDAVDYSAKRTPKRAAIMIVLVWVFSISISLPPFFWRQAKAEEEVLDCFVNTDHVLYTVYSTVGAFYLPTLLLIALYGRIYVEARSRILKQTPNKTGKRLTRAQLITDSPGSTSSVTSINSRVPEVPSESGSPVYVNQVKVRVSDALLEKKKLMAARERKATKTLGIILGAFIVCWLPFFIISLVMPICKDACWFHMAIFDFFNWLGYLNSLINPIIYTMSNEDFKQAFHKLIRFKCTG
Chain of Beta-arrestin-2 (P32120 whole entry): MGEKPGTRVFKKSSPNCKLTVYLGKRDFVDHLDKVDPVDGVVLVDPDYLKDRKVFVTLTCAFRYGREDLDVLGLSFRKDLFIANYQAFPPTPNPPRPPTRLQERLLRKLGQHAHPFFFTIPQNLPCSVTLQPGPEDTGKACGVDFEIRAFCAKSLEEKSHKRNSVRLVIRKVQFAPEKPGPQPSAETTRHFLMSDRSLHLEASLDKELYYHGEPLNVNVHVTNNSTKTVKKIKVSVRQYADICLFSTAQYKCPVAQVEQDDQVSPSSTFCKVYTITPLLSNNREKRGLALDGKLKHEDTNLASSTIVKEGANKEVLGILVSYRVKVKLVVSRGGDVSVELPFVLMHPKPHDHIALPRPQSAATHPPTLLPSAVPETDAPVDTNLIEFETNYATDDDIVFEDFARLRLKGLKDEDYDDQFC
Chain of 5-hydroxytryptamine receptor 2A (P14842 whole entry): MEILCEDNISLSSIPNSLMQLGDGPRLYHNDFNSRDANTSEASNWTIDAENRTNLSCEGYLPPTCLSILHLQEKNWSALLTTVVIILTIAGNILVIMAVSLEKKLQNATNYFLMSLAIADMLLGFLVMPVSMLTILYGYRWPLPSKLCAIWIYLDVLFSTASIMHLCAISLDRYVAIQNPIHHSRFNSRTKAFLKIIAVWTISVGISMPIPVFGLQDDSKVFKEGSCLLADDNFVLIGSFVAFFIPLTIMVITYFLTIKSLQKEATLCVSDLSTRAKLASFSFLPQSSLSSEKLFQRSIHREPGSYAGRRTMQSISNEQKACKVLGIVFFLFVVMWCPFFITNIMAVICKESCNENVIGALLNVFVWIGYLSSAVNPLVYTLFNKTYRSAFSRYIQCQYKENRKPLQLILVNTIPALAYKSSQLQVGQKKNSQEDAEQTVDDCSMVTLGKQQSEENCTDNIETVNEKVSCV

As a reminder, the Ki is the dissociation constant of the complex between target and ligand, obtained from inhibition or displacement. Regarding `COc1ccc(OC[C@H]2CN(C)CC[C@@H]2c2ccccc2)cc1` [(3R,4S)-3-(4-Methoxy-phenoxymethyl)-1-methyl-4-phenyl-piperidine], the Ki in test [1] is 0.407 µM; in test [2] it was 9.33 µM; in test [3], 1.91 µM; in test [4], above 10 µM; in test [5], 3.72 µM; in test [6], 3.16 µM.

`CNCC[C@@H](Oc1ccc(C(F)(F)F)cc1)c1ccccc1` [Prozac]: the Ki in test [3] was determined as 0.269 µM; in test [5] it was 4.27 µM.

In the case of `Fc1ccc([C@@H]2CCNC[C@H]2COc2ccc3c(c2)OCO3)cc1` [PAROXETINE], the Ki in test [2] was above 10 µM; in test [3], above 10 µM; in test [4] it was 2.63 µM; in test [5] it was 4.9 µM; in test [6], above 10 µM.

Consider `CNCC[C@@H](Oc1ccc(C(F)(F)F)cc1)c1ccccc1` [Fluoxetine-R-(-)], for which the Ki in test [3] is 0.155 µM; in test [5], above 10 µM.

`CN(C)CCCC1(c2ccc(F)cc2)OCc2cc(C#N)ccc21` (configuration not stated) [CITALOPRAM HYDROBROMIDE]: the Ki is above 10 µM in test [2], 3.31 µM in test [3], above 10 µM in test [4] and above 10 µM in test [5].

For the compound `CNCC[C@@H](Oc1ccc(C(F)(F)F)cc1)c1ccccc1` [(3R)-N-methyl-3-phenyl-3-[4-(trifluoromethyl)phenoxy]propan-1-amine], the results for the Ki in test [3] and in test [5] were 3.63 µM and 3.89 µM, respectively.

For `c1ccc2c(CCC3CCNCC3)c[nH]c2c1`, the Ki in test [1] came out at 0.794 µM; in test [2], 4.47 µM; in test [3] it was 3.24 µM; in test [4], 3.24 µM; in test [5], 3.63 µM; in test [6], 9.12 µM.
